According to patent US20060216791A1, “Method for synthesizing amino-acid-selectively labeled protein” (Mitsubishi Chemical Corporation, priority 2003, published 2006):

Experiments:
Format in all cases: biochemical
glutamine synthetase = assay: Metabolism of glutamic acid to glutamine in wheat germ cell-free system, 1H-15N HSQC of synthesized yeast ubiquitin
Method: (§1) The mixed solution was allowed to react for 2 days with a dialysis buffer solution, wherein only one type of amino acid had been labeled with ^15N (manufactured by Cambridge Isotope Laboratories) and 19 types of remaining amino acids were ordinary amino acids. Thereafter, the dialysis buffer solution was exchanged with a fresh buffer solution, and the protein synthesis reaction was carried out further for 2 days. Thereafter, 1 ml of the reaction solution was concentrated to 250 μl using a Centricon-3 ultrafiltration concentration device manufactured by Millipore. […] The concentrated solution was passed through a Micro Spin G-25 gel filtration column manufactured by Amersham that had previously been equilibrated with a buffer solution used for NMR measurement (50 mM sodium phosphate, pH 6.5, 100 mM NaCl), so that the buffer solution was exchanged with a buffer solution used for the measurement, thereby preparing an NMR measurement sample.
(§2) For the NMR measurement, an Avance-500 spectrometer manufactured by Bruker was used. In order to maintain the stability of a magnetic field, 10% D2O used for NMR lock was added to the measurement sample, and thereafter, ^1H-^15N HSQC measurement was carried out. The measurement temperature was set at 30° C.
(§3) Subsequently, the concentration of aminooxyacetic acid in a translation solution and an external dialysis solution was set at 1 mM. The following 3 types of substrate amino acids were prepared: (1) only alanine was labeled with ^15N and 19 types of remaining amino acids were ordinary amino acids; (2) only aspartic acid was labeled with ^15N and 19 types of remaining amino acids were ordinary amino acids; and (3) only glutamic acid was labeled with ^15N and 19 types of remaining amino acids were ordinary amino acids. Using these substrate amino acids, yeast ubiquitins were synthesized by the same method as described in Example 1, and the ^1H-^15N HSQC was measured. […] Moreover, the aforementioned experiment was carried out under conditions whereby the concentration of aminooxyacetic acid was set at 0.1 μM, 1 μM, 10 μM, 100 μM, and 1 mM.
(§4) Subsequently, the concentration of aminooxyacetic acid was set at 1 mM and the concentration of L-methionine sulfoximine was set at 0.1 mM in a translation solution and an external dialysis solution. Substrate amino acid was prepared such that only glutamic acid was labeled with ^15N and 19 types of remaining amino acids were ordinary amino acids. Using such substrate amino acid, yeast ubiquitin was synthesized by the same method as described in examples, and the ^1H-^15N HSQC was measured. […] Moreover, the aforementioned experiment was carried out under conditions whereby the concentration of L-methionine sulfoximine was set at 0.1 μM, 1 μM, 10 μM, and 100 μM.

[1] = system: cell-free protein synthetic system containing a wheat germ extract; assay: Amount of GFP synthesized by wheat germ cell-free protein synthesis (GFP fluorescence intensity)
transaminase = assay: Amino acid metabolism by transaminase in wheat germ cell-free system, 1H-15N HSQC of synthesized yeast ubiquitin; conditions: for metabolism of glutamic acid to aspartic acid: only glutamic acid labeled with 15N
Method: as §1, §2, §3, §4

Row | Structure (SMILES) | metabolism of glutamic acid to glutamine (glutamine synthetase; 0.1 mM L-methionine sulfoximine plus 1 mM aminooxyacetic acid, only glutamic acid labeled with 15N, FIG. 8) | inhibition of the metabolism (glutamine synthetase; L-methionine sulfoximine 10 μM) | inhibition of the metabolism (glutamine synthetase; L-methionine sulfoximine 100 μM or more) | amount of GFP synthesized ([1]; L-methionine sulfoximine 20 mM or less in external dialysis solution and reaction solution, FIG. 7) | activity of metabolizing glutamic acid to glutamine (glutamine synthetase; 1 mM aminooxyacetic acid, only glutamic acid labeled with 15N, FIG. 6) | amount of GFP synthesized ([1]; aminooxyacetic acid 4 mM or less in external dialysis solution and reaction solution, FIG. 4) | synthesized amount of GFP maintained ([1]; aminooxyacetic acid 10 mM, FIG. 4) | metabolism of glutamic acid to aspartic acid (transaminase; 1 mM aminooxyacetic acid plus 0.1 mM L-methionine sulfoximine, FIG. 8) | HSQC signals observed (selective labeling) (transaminase; 1 mM aminooxyacetic acid, only alanine labeled with 15N, FIG. 5A) | HSQC signals observed (selective labeling) (transaminase; 1 mM aminooxyacetic acid, only aspartic acid labeled with 15N, FIG. 5B) | metabolism of glutamic acid to aspartic acid (transaminase; 1 mM aminooxyacetic acid, FIG. 6) | inhibition of the metabolism (transaminase; aminooxyacetic acid 10 μM) | inhibition of the metabolism (transaminase; aminooxyacetic acid 100 μM or more)
1 | CS(=N)(=O)CC[C@H](N)C(=O)O (stereo partly drawn) [L-methionine sulfoximine] | suppressed | two thirds | completely inhibited | not reduced |  |  |  |  |  |  |  |  | 
2 | NOCC(=O)O [aminooxyacetic acid] |  |  |  |  | has still remained | not reduced | approximately 70% | suppressed | only signal derived from alanine or aspartic acid was observed | only signal derived from alanine or aspartic acid was observed | suppressed | two thirds | completely inhibited
